In US20130072720A1, “PHARMACEUTICAL COMPOSITION FOR TREATMENT OF OSTEOARTHRITIS” (NATIONAL DEFENSE MEDICAL CENTER, priority 2011, published 2013):

Tests used:
[1] = test system: ADAMTS-4, also called Aggrecanase-1; assay: TNF-α-induced ADAMTS-4 mRNA expression by Q-PCR; format: cell-based; conditions: porcine chondrocytes, HS—Cf 2 hours, then TNF-α (5 ng/ml) four hours
Method: (§1) The following embodiments show suppression effect of HS—Cf on those factors involved in signaling pathways of TNF-α-induced IRF-1 expression and prevention effect of HS—Cf on TNF-mediated collagen loss and proteoglycan loss. All porcine chondrocytes used are obtained from the hind leg joints of pigs.
(§2) TNF-α induced ADAMTS-4 is one of the factors that damage and destroy cartilage. Mix HS—Cf in different concentrations with porcine chondrocytes and react for 2 hours. Then add TNF-α (5 ng/ml) to stimulate cells for four hours. Next measure mRNA expression by Q-PCR.

[2] = test system: ADAMTS-5, also called Aggrecanase-2; assay: TNF-α-induced ADAMTS-5 mRNA expression by Q-PCR; format: cell-based; conditions: porcine chondrocytes, HS—Cf 2 hours, then TNF-α (5 ng/ml) four hours
Method: as §1
TNF-α induced ADAMTS-5 is one of the factors that damage and destroy cartilage. Mix HS—Cf in different concentrations with porcine chondrocytes and react for 2 hours. Then add TNF-α (5 ng/ml) to stimulate cells for four hours. Next observe mRNA expression by Q-PCR.

NO (nitric oxide) = assay: NO production in TNF-α-stimulated chondrocytes; format: cell-based, porcine; conditions: chondrocytes stimulated by TNF-α (5 ng/ml), after 48 hours, HS—Cf in different concentrations
Description: as §1
(§3) NO (nitric oxide) is generated by TNF-α-induced iNOS so that iNOS expression is correlated with NO production. HS—Cf in different concentrations are delivered to chondrocytes stimulated by TNF-α (5 ng/ml).

proteoglycan (aggrecan) = assay: Loss prevention of proteoglycan under TNF-α stimulation, Safranin-O staining; format: cell-based; conditions: porcine chondrocytes, 5/or 10 μM HS—Cf 24 hours, then TNF-α (5 ng/ml) 72 hours
Method: as §1
Besides collagen II, loss of proteoglycan (aggrecan) is also affected by HS—Cf. […] Then add TNF-α (5 ng/ml) to stimulate porcine chondrocytes for 72 hours. Next use Safranin-O staining to observe the amount of proteoglycan in cartilaginous tissue.

[3] = test system: matrix metalloproteinase-3 (MMP-3); assay: TNF-α-induced MMP-3 mRNA expression by Q-PCR; format: cell-based; conditions: porcine chondrocytes, HS—Cf 2 hours, then TNF-α (5 ng/ml) four hours
Method: as §1
as §2, with “TNF-α-induced MMP-3” for “TNF-α induced ADAMTS-4”, “porcine chondrocytes” for “cells”, “real-time quantitative-polymerase chain reaction (Q-PCR).” for “Q-PCR.”

[4] = test system: matrix metalloproteinase-13 (MMP-13); assay: TNF-α-induced MMP-13 mRNA expression by Q-PCR; format: cell-based; conditions: porcine chondrocytes, HS—Cf 2 hours, then TNF-α (5 ng/ml) four hours
Method: as §1
Mix HS—Cf in different concentrations with porcine chondrocytes and react for 2 hours. Then add TNF-α (5 ng/ml) to stimulate cells for four hours. Next observe mRNA expression by real-time quantitative-polymerase chain reaction (Q-PCR).

porcine chondrocytes [5] = assay: MTT cell viability assay; format: cell-based; conditions: any of the concentrations
Description: (§4) Cytotoxicity of HS—Cf also has been checked. HS—Cf is used as a pharmaceutical composition so that cytotoxicity of HS—Cf has to be carefully considered for determining whether HS—Cf can be used for treatment of osteoarthritis. […] Thus HS—Cf is used in treatment of organisms.

[6] = test system: matrix metalloproteinase-1 (MMP-1); assay: TNF-α-induced MMP-1 mRNA expression by Q-PCR; format: cell-based; conditions: porcine chondrocytes, HS—Cf 2 hours, then TNF-α (5 ng/ml) four hours
Method: as §1
as §2, with “TNF-α-induced MMP-1” for “TNF-α induced ADAMTS-4”, “porcine chondrocytes” for “cells”, “real-time quantitative-polymerase chain reaction (Q-PCR).” for “Q-PCR.”

collagen II = assay: Loss prevention of collagen II under TNF-α stimulation, Western blot; format: cell-based; conditions: porcine chondrocytes, HS—Cf 24 hours, then TNF-α (5 ng/ml) 48 hours
Method: as §1
As shown in the figure, after mixing porcine chondrocytes with TNF-α (5 ng/ml), the amount of collagen II at different times is determined by Western Blot. It is confirmed that collagen II is degraded and lost along with the time under TNF-α stimulation. […] Then add TNF-α (5 ng/ml) to stimulate porcine chondrocytes for 48 hours. Next use western blot to measure the amount of protein.

porcine chondrocytes [7] = assay: lactate dehydrogenase (LDH) assay; format: cell-based; conditions: any of the concentrations
Description: as §4

[8] = test system: inducible nitric oxide synthase (iNOS); assay: TNF-α-induced iNOS expression in chondrocytes; format: cell-based, porcine; conditions: chondrocytes stimulated by TNF-α (5 ng/ml), after 48 hours, HS—Cf in different concentrations
Description: as §1, §3

O=C(Nc1cccc(C(F)(F)F)c1)c1ccccc1O [HS—Cf, 2-hydroxy-N-[3-(trifluoromethyl)phenyl]benzamide]
ADAMTS-4 mRNA expression [1]: ADAMTS-4 expression is decreased along with the increasing concentration | ADAMTS-5 mRNA expression [2]: ADAMTS-5 expression is decreased along with the increasing concentration | NO production (NO (nitric oxide)): NO production is also reduced along with the increasing concentration | degradation and loss of proteoglycan (proteoglycan (aggrecan)): degradation and loss of proteoglycan is under control | MMP-3 mRNA expression [3]: decreases MMP-3 expression at higher concentration | MMP-13 mRNA expression [4]: MMP-13 expression is decreased along with the increasing concentration | cytotoxicity (MTT cell viability assay) (porcine chondrocytes [5]): no obvious cytotoxic effect | MMP-1 mRNA expression [6]: MMP-1 expression is decreased along with the increasing concentration | degradation and loss of collagen II (collagen II): degradation and loss of collagen II is under control | cytotoxicity (LDH assay) (porcine chondrocytes [7]): no obvious cytotoxic effect | iNOS expression [8]: significantly decreases iNOS expression at higher concentration
